Experimental findings from patent publication US12465627B2, “Immunity-boosting agent, immuno-therapeutic anti-cancer agent, and anti-cancer therapy adverse effect mitigating agent containing anthocyanin-fucoidan complex as active ingredient” (JBKLAB CO., LTD., priority 2017, dated 2025) are described below.

Series [1] deals with SK-BR-3 (human breast cancer) transplanted tumor. The experiment in a line: Combined administration with doxorubicin in SK-BR-3 transplanted mice. The series is classed as in vivo, Balb/c mice. To be noted: after second intravenous administration of doxorubicin.
Series [2] concerns CD8 T cells and NK cells in blood. Description: Immune cell activity and weight recovery in doxorubicin-treated mice. It counts as in vivo, Balb/c mice. As to conditions: DOX 10 mg/kg on day 1 and 5; oral administration for 14 days; flow cytometry. (In flow cytometry, cells or beads pass a laser one at a time.)
The conditions of series [3]: mouse, in vivo.

For `COc1cccc2c1C(=O)c1c(O)c3c(c(O)c1C2=O)C[C@@](O)(C(=O)CO)C[C@@H]3O[C@H]1C[C@H](N)[C@H](O)[C@H](C)O1` [DOX, doxorubicin], the body weight change entry in series [1] is recorded as “rapid decrease in body weight”. The “immune cells (CD8 T cell and NK cell) in blood” value in series [2] is “immune cells decreased”. In series [3], this compound yielded a BASO of 3.2%, an EOS of 3%, an HCT of 52.6% and an HGB of 16.5 g/dL. Besides, in series [3], the LYM was found to be 53.7%, the MCHC is given as 15 g/dL, the MONO is 4.3% and the NEUT was 33.9%. In series [3], the PLT is 1954 ×10^3 cells/μL, the RBC is recorded as 10.99 ×10^6 cells/μL and the WBC is 6.57 ×10^3 cells/μL.
Turning to fucoidan, in series [3], the BASO was found to be 1.5%, the EOS stood at 6.1%, the HCT is 39.8% and the HGB amounted to 10.9 g/dL. In addition, in series [3], the LYM stood at 14.3%, the MCHC turned out to be 12 g/dL, the MONO amounted to 4.6% and the NEUT turned out to be 67.9%. Besides, in series [3], the PLT was 1242 ×10^3 cells/μL, the RBC is 9.14 ×10^6 cells/μL and the WBC is reported as 18.41 ×10^3 cells/μL.
